Source: patent US8026219B2, “Antimicrobial linear peptides” (Universitat de Girona, priority 2006, dated 2011)
Starred links: 1 amine or outer side, 2 acyl side, 3 side chain; linkers in the order of their positions; H or OH if unused. Non-standard residues stand in square brackets, D forms with d. Residues, ends and D or L forms follow the SMILES beside them. No end group written: not given here. *: point of attachment. X1 = O=C([C@H](Cc1c[nH]c2ccccc12)N(Cc1ccccc1)[*:1])[*:2]; Tos = Cc1ccc(S(=O)(=O)*)cc1; Bz = O=C(c1ccccc1)*

Assays:
[1] = system: Pseudomonas syringae EPS94; assay: Minimum inhibitory concentration (MIC), microbial growth by optical density; type: cell-based; settings: 48 h incubation at 25° C., TSB medium
Description: (§1) Each experiment was performed twice.

[2] = system: Erwinia amylovora PMV6076; assay: as above; type: cell-based; settings: 48 h incubation at 25° C., TSB medium
Description: as §1

[3] = system: Xanthomonas vesicatori 2133-2; assay: as above; settings: 48 h incubation at 25° C., TSB medium
Description: All the bacteria were stored at a temperature of −80° C. in Luria-Bertani (LB) medium supplemented with 20% glycerine in volume/volume.
In all cases they were resuspended in sterile water to obtain a suspension adjusted to an absorbance of 0.2 to 60 nm, which approximately corresponds to 10^8 colony forming units.
To determine the minimum inhibitory concentration (MIC), the peptides were solubilized in milli-Q sterile water until a final concentration of 1000 μM and they were filtered through a 0.22 μm pore size filter.
Dilutions of the peptides of the invention were made to obtained solutions at the concentrations of 750, 500, 250, 200, 150, 125, 100, 75, 50 and 25 μM.
20 μl of each dilution were mixed with 20 μl of the suspension of the corresponding bacterial indicator, and 160 μl of the TSB (Trypticase Soy Broth) liquid medium until a total volume of 200 μl in each well of a microplate.
Two replicas were carried out for each strain, concentration and peptide under study.
The positive controls contained water instead of peptide, and the negative controls contained the peptides without the bacterial suspension.
The microbial growth was determined automatically by optical density at 600 nm using the Microbiology Analyser Bioscreen C (Labsystems)
The microplates were incubated at 25° C. for 48 hours with stirring for 20 seconds before measuring the absorbance every hour. Each experiment was performed twice.

[4] = system: erythrocytes from fresh human blood; settings: 5% erythrocytes, 1 h at 37° C., relative to 200 μM melittin; for % Haemolysis 50 μM: 50 μM peptide; for % Haemolysis 150 μM: 150 μM peptide; for % Haemolysis 250 μM: 250 μM peptide
Description: A description of the methodology used to determine the haemolytic activity is found in Oren et al, Biochemistry, 2000, 39, 6103-6114, and in Raguse et al., J. Am. Chem. Soc., 2002, 124, 12774-12785.
The haemolytic activity of the peptides of the invention was evaluated by determining the release of haemoglobin which is produced on placing in contact a solution of the peptides with a suspension of erythrocytes 5% by volume, from fresh human blood.
The blood was collected aseptically using a Vactainer® K2E system (Belliver, Great Britain) with EDTA and it was stored at 4° C. for a period lower than 2 hours.
The blood was centrifuged at 6000 g for 5 minutes to separate the erythrocytes. There were washed three times with TRIS buffer (10 mM TRIS, 150 mM NaCl, pH 7.2) and they were resuspended in TRIS buffer until obtaining a suspension which contained 10% by volume of erythrocytes.
The peptides were solubilized in TRIS buffer until a final concentration of 100, 300 and 500 μM
The replicas were used for each peptide and concentration.
65 μl of 10% erythrocyte suspension was mixed with 65 μl of the peptide solution in each well of a 96-well plate (Micro-Amp®, Applied Biosystems, USA) (5% by volume of erythrocytes) and the mixture was incubated for 1 h at 37° C. under stirring. In this way, the erythrocyte suspensions were subjected to peptide concentrations of 50, 150 and 250 μM.
Next, the plates were centrifuged at 3500 g during 10 minutes and aliquots were transferred of 80 μl of supernatant to microplates with 100 wells (Bioscreen), which were diluted with 80 μl of milli-Q water.
The degree of haemolysis was determined from the absorbance at 540 nm with a Bioscreen plate reader.
The complete positive haemolysis control was determined in a TRIS buffer solution which contained 200 μM melittin (Sigma-Aldrich, Spain)
The percentage of haemolysis (H) was determined using the following equation: H=100×[Op−Ob)/(Om−Ob)]
Where OP as the optical density measured for a determined peptide concentration, Ob was the optical density of the buffer solution, and Om was the optical density for the positive control with melittin.

## CC[C@H](C)[C@H](NC(=O)[C@H](CCCCN)NC(=O)[C@H](CCCCN)NC(=O)[C@H](Cc1ccccc1)NC(=O)[C@H](CC(C)C)NC(=O)[C@H](CCCCN)NC(=O)[C@H](Cc1c[nH]c2ccccc12)NCc1ccccc1)C(=O)N[C@@H](CC(C)C)C(=O)N[C@@H](CCCCN)C(=O)N[C@H](C(=O)N[C@@H](CC(C)C)C(N)=O)C(C)C [BP011] (H-[X1]KLFKKILKVL-NH2)
[1]
  range of concentrations including the MIC, P. syringae: 5 to 7.5 µM
[2]
  range of concentrations including the MIC, E. amylovora: 5 to 7.5 µM
[3]
  range of concentrations including the MIC, X. vesicatoria: 2.5 to 5 µM
[4]
  % Haemolysis 50 μM: 81%
  % Haemolysis 150 μM: 96%
  % Haemolysis 250 μM: 100%

## CC[C@H](C)[C@H](NC(=O)[C@H](CCCCN)NC(=O)[C@H](CCCCN)NC(=O)[C@H](Cc1ccccc1)NC(=O)[C@H](CC(C)C)NC(=O)[C@H](CCCCN)NC(=O)[C@@H](N)CCCCN)C(=O)N[C@@H](CC(C)C)C(=O)N[C@@H](CCCCN)C(=O)N[C@@H](Cc1c[nH]c2ccccc12)C(=O)N[C@@H](CC(C)C)C(N)=O [BP017]
[1]
  range of concentrations including the MIC, P. syringae: 5 to 7.5 µM
[2]
  range of concentrations including the MIC, E. amylovora: >7.5 µM
[3]
  range of concentrations including the MIC, X. vesicatoria: 5 to 7.5 µM

## CC[C@H](C)[C@H](NC(=O)[C@H](CCCCN)NC(=O)[C@H](CCCCN)NC(=O)[C@H](Cc1ccccc1)NC(=O)[C@H](CC(C)C)NC(=O)[C@H](CCCCN)NC(=O)[C@H](CCCCN)NS(=O)(=O)c1ccc(C)cc1)C(=O)N[C@@H](CC(C)C)C(=O)N[C@@H](CCCCN)C(=O)N[C@H](C(=O)N[C@@H](CC(C)C)C(N)=O)C(C)C [BP030]
[1]
  range of concentrations including the MIC, P. syringae: 5 to 7.5 µM
[2]
  range of concentrations including the MIC, E. amylovora: 5 to 7.5 µM
[3]
  range of concentrations including the MIC, X. vesicatoria: 5 to 7.5 µM
[4]
  % Haemolysis 50 μM: 25%
  % Haemolysis 150 μM: 70%
  % Haemolysis 250 μM: 80%

## CC[C@H](C)[C@H](NC(=O)[C@H](CCCCN)NC(=O)[C@H](CCCCN)NC(=O)[C@H](Cc1ccccc1)NC(=O)[C@H](CC(C)C)NC(=O)[C@H](CCCCN)NC(=O)[C@H](CCCCN)NC(=O)c1ccccc1)C(=O)N[C@@H](CC(C)C)C(=O)N[C@@H](CCCCN)C(=O)N[C@H](C(=O)N[C@@H](CC(C)C)C(N)=O)C(C)C [BP031]
[1]
  range of concentrations including the MIC, P. syringae: 5 to 7.5 µM
[2]
  range of concentrations including the MIC, E. amylovora: 2.5 to 5 µM
[3]
  range of concentrations including the MIC, X. vesicatoria: <2.5 µM
[4]
  % Haemolysis 50 μM: 34%
  % Haemolysis 150 μM: 71%
  % Haemolysis 250 μM: 76%

## CC[C@H](C)[C@H](NC(=O)[C@H](CCCCN)NC(=O)[C@H](CCCCN)NC(=O)[C@H](Cc1ccccc1)NC(=O)[C@H](CC(C)C)NC(=O)[C@H](CCCCN)NC(=O)[C@@H](N)CCCCN)C(=O)N[C@@H](CC(C)C)C(=O)N[C@@H](CCCCN)C(=O)N[C@@H](Cc1c[nH]c2ccccc12)C(=O)N[C@@H](CC(C)C)C(N)=O [BP052]
[1]
  range of concentrations including the MIC, P. syringae: 5 µM
[2]
  range of concentrations including the MIC, E. amylovora: 2.5 to 5 µM
[3]
  range of concentrations including the MIC, X. vesicatoria: 2.5 to 5 µM
[4]
  % Haemolysis 50 μM: 51%
  % Haemolysis 150 μM: 84%
  % Haemolysis 250 μM: 79%

## CC[C@H](C)[C@H](NC(=O)[C@H](CCCCN)NC(=O)[C@H](CCCCN)NC(=O)[C@H](Cc1ccccc1)NC(=O)[C@H](CC(C)C)NC(=O)[C@H](CCCCN)NC(=O)[C@H](CCCCN)NC(C)=O)C(=O)N[C@@H](CC(C)C)C(=O)N[C@@H](CCCCN)C(=O)N[C@@H](Cc1c[nH]c2ccccc12)C(=O)N[C@@H](CC(C)C)C(N)=O [BP053]
[1]
  range of concentrations including the MIC, P. syringae: 5 to 7.5 µM
[2]
  range of concentrations including the MIC, E. amylovora: >7.5 µM
[3]
  range of concentrations including the MIC, X. vesicatoria: 2.5 to 5 µM
[4]
  % Haemolysis 50 μM: 60%
  % Haemolysis 150 μM: 82%
  % Haemolysis 250 μM: 85%

## CC[C@H](C)[C@H](NC(=O)[C@H](CCCCN)NC(=O)[C@H](CCCCN)NC(=O)[C@H](Cc1ccccc1)NC(=O)[C@H](CC(C)C)NC(=O)[C@H](CCCCN)NC(=O)[C@H](CCCCN)NS(=O)(=O)c1ccc(C)cc1)C(=O)N[C@@H](CC(C)C)C(=O)N[C@@H](CCCCN)C(=O)N[C@@H](Cc1c[nH]c2ccccc12)C(=O)N[C@@H](CC(C)C)C(N)=O [BP054] (Tos-KKLFKKILKWL-NH2)
[1]
  range of concentrations including the MIC, P. syringae: 5 to 7.5 µM
[2]
  range of concentrations including the MIC, E. amylovora: >7.5 µM
[3]
  range of concentrations including the MIC, X. vesicatoria: <2.5 µM

## CC[C@H](C)[C@H](NC(=O)[C@H](CCCCN)NC(=O)[C@H](CCCCN)NC(=O)[C@H](Cc1ccccc1)NC(=O)[C@H](CC(C)C)NC(=O)[C@H](CCCCN)NC(=O)[C@H](CCCCN)NC(=O)c1ccccc1)C(=O)N[C@@H](CC(C)C)C(=O)N[C@@H](CCCCN)C(=O)N[C@@H](Cc1c[nH]c2ccccc12)C(=O)N[C@@H](CC(C)C)C(N)=O [BP055] (Bz-KKLFKKILKWL-NH2)
[1]
  range of concentrations including the MIC, P. syringae: >7.5 µM
[2]
  range of concentrations including the MIC, E. amylovora: >7.5 µM
[3]
  range of concentrations including the MIC, X. vesicatoria: <2.5 µM

## CC[C@H](C)[C@H](NC(=O)[C@H](CCCCN)NC(=O)[C@H](CCCCN)NC(=O)[C@H](Cc1ccccc1)NC(=O)[C@H](CC(C)C)NC(=O)[C@H](CCCCN)NC(=O)[C@H](CC(C)C)NS(=O)(=O)c1ccc(C)cc1)C(=O)N[C@@H](CC(C)C)C(=O)N[C@@H](CCCCN)C(=O)N[C@@H](Cc1c[nH]c2ccccc12)C(=O)N[C@@H](CC(C)C)C(N)=O [BP059] (Tos-LKLFKKILKWL-NH2)
[1]
  range of concentrations including the MIC, P. syringae: >7.5 µM
[2]
  range of concentrations including the MIC, E. amylovora: >7.5 µM
[3]
  range of concentrations including the MIC, X. vesicatoria: 2.5 µM

## CC[C@H](C)[C@H](NC(=O)[C@H](CCCCN)NC(=O)[C@H](CCCCN)NC(=O)[C@H](Cc1ccccc1)NC(=O)[C@H](CC(C)C)NC(=O)[C@H](CCCCN)NC(=O)[C@H](CCCCN)NS(=O)(=O)c1ccc(C)cc1)C(=O)N[C@@H](CC(C)C)C(=O)N[C@@H](CCCCN)C(=O)N[C@@H](Cc1ccccc1)C(=O)N[C@@H](CC(C)C)C(N)=O [BP078]
[1]
  range of concentrations including the MIC, P. syringae: 5 to 7.5 µM
[2]
  range of concentrations including the MIC, E. amylovora: 5 to 7.5 µM
[3]
  range of concentrations including the MIC, X. vesicatoria: <2.5 µM
[4]
  % Haemolysis 50 μM: 40%
  % Haemolysis 150 μM: 85%
  % Haemolysis 250 μM: 95%

## CC[C@H](C)[C@H](NC(=O)[C@H](CCCCN)NC(=O)[C@H](CCCCN)NC(=O)[C@H](Cc1ccccc1)NC(=O)[C@H](CC(C)C)NC(=O)[C@H](CCCCN)NC(=O)[C@@H](N)Cc1ccccc1)C(=O)N[C@@H](CC(C)C)C(=O)N[C@@H](CCCCN)C(=O)N[C@@H](Cc1ccc(O)cc1)C(=O)N[C@@H](CC(C)C)C(N)=O [BP090]
[1]
  range of concentrations including the MIC, P. syringae: 5 to 7.5 µM
[2]
  range of concentrations including the MIC, E. amylovora: 5 to 7.5 µM
[3]
  range of concentrations including the MIC, X. vesicatoria: 2.5 to 5 µM
[4]
  % Haemolysis 50 μM: 11%
  % Haemolysis 150 μM: 57%
  % Haemolysis 250 μM: 84%

## CC[C@H](C)[C@H](NC(=O)[C@H](CCCCN)NC(=O)[C@H](CCCCN)NC(=O)[C@H](Cc1ccccc1)NC(=O)[C@H](CC(C)C)NC(=O)[C@H](CCCCN)NC(=O)[C@H](Cc1ccc(O)cc1)NC(C)=O)C(=O)N[C@@H](CC(C)C)C(=O)N[C@@H](CCCCN)C(=O)N[C@@H](Cc1ccc(O)cc1)C(=O)N[C@@H](CC(C)C)C(N)=O [BP096]
[4]
  % Haemolysis 50 μM: 47%
  % Haemolysis 150 μM: 86%
  % Haemolysis 250 μM: 85%

## CC[C@H](C)[C@H](NC(=O)[C@H](CCCCN)NC(=O)[C@H](CCCCN)NC(=O)[C@H](Cc1ccccc1)NC(=O)[C@H](CC(C)C)NC(=O)[C@H](CCCCN)NC(=O)[C@H](CCCCN)NC(C)=O)C(=O)N[C@@H](CC(C)C)C(=O)N[C@@H](CCCCN)C(=O)N[C@@H](CCCCN)C(=O)N[C@@H](CC(C)C)C(N)=O [BP124]
[4]
  % Haemolysis 50 μM: 1%
  % Haemolysis 150 μM: 5%
  % Haemolysis 250 μM: 23%

## Ac-KKLFKKILKVL-NH2 [BP029]
[1]
  range of concentrations including the MIC, P. syringae: 5 to 7.5 µM
[2]
  range of concentrations including the MIC, E. amylovora: 5 to 7.5 µM
[3]
  range of concentrations including the MIC, X. vesicatoria: 7.5 µM

## Ac-YKLFKKILKKL-NH2 [BP120]
[1]
  range of concentrations including the MIC, P. syringae: 5 to 7.5 µM
[2]
  range of concentrations including the MIC, E. amylovora: >7.5 µM
[3]
  range of concentrations including the MIC, X. vesicatoria: 5 to 7.5 µM

## LKLFKKILKKL-NH2 [BP128]
[4]
  % Haemolysis 50 μM: 2%
  % Haemolysis 150 μM: 31%
  % Haemolysis 250 μM: 66%

## YKLFKKILKKL-NH2 [BP119]
[4]
  % Haemolysis 50 μM: 4%
  % Haemolysis 150 μM: 19%
  % Haemolysis 250 μM: 45%
